Laboratory results: ChEMBL document CHEMBL4251688, “Allosteric Modulators of Nicotinic Acetylcholine Receptors Useful for the Treatment of Cognitive Impairment” (ACS Med Chem Lett, 2018)

Molecular target: Neuronal acetylcholine receptor subunit alpha-7 (Homo sapiens, UniProt P36544)
Assay: Positive allosteric modulation of human alpha 7 nAChR expressed in HEK cells co-expressing human RIC3 assessed as increase in acetylcholine-induced channel current at holding potential of -60 mV incubated for 58 secs followed by acetylcholine treatment for 1 sec by patch clamp electrophysiology assay
Type: cell-based

Neuronal acetylcholine receptor subunit alpha-7, sequence (P36544 whole entry): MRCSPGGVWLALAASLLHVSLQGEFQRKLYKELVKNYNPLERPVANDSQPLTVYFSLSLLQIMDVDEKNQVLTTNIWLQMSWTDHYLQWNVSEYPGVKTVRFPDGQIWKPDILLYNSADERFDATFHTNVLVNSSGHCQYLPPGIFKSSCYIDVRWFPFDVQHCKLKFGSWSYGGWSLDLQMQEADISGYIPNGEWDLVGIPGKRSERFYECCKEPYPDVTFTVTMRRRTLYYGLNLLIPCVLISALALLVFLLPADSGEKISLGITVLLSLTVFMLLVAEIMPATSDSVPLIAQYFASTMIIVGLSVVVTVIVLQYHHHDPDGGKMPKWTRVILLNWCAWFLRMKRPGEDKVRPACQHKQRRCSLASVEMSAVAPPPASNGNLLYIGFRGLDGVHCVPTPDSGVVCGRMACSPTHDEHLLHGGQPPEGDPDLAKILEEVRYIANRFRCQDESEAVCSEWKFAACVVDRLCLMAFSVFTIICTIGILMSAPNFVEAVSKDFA

Row | SMILES | EC50
1 | CC1(C)[C@@H](c2ccc(S(N)(=O)=O)cc2)[C@@H]1c1noc(-c2ccc(F)cc2)n1 | 93 nM
2 | CC1(C)[C@@H](c2ccc(S(N)(=O)=O)cc2)[C@@H]1c1noc(C2CC(F)(F)C2)n1 | 98 nM
3 | NS(=O)(=O)c1ccc([C@H]2[C@H](c3noc(-c4ccccc4)n3)C2(F)F)cc1 | 83 nM
4 | CC1(C)[C@@H](c2ccc(S(N)(=O)=O)cc2)[C@@H]1c1noc(C2CCCC2)n1 | 69 nM
5 | CC(Oc1cccc(Cl)c1)c1nc([C@H]2[C@H](c3ccc(S(N)(=O)=O)cc3)C2(C)C)no1 (stereo not given in full) | 93 nM
